Test results published in patent US7816353B2 (Exelixis, Inc., priority 2003, dated 2010).

Each compound was assayed against T1, p70S6K (Homo sapiens, UniProt P23443, T412E) (assay: p70S6 Kinase Assay (Luciferase-Coupled Chemiluminescent Kinase assay, LCCA)). Settings: human p70S6 kinase domain residues 1-421, T412E; 5 μM ATP; read-out: p70S6K IC50.
T1 construct: human p70S6 kinase domain residues 1-421, containing a T412E mutation; made in house
Assay type: biochemical
Method: Kinase activity and compound inhibition are investigated using one or more of the three assay formats described below. The ATP concentrations for each assay are selected to be close to the Michaelis-Menten constant (KM) for each individual kinase. Dose-response experiments are performed at 10 different inhibitor concentrations in a 384-well plate format. […] Y=Min+(Max−Min)/(1+(X/IC50)^H) Equation (2) p70S6 Kinase Assay
Biochemical activity of p70S6 kinase was assessed using a Luciferase-Coupled Chemiluminescent Kinase assay (LCCA) format. Kinase activity was measured as the percent ATP remaining following the kinase reaction. Remaining ATP was detected by luciferase-luciferin-coupled chemiluminescence. […] The mixture is incubated at ambient temperature for 2 hours after which 20 μL luciferase-luciferin mix is added and the chemiluminescent signal read using a Wallac Victor^2 reader.

T1 sequence (P23443 1-421 T412E): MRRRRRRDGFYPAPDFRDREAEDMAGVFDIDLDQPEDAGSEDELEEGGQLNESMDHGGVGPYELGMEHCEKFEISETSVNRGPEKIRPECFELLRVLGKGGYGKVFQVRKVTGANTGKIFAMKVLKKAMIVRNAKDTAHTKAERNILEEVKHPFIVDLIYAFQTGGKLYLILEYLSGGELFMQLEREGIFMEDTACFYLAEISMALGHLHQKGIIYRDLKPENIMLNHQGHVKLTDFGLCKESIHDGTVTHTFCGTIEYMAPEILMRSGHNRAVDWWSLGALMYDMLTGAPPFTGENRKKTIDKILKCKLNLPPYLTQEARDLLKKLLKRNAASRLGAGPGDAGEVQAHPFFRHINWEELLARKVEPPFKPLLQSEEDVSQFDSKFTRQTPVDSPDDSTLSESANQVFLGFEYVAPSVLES

CSc1nc(N)nc(N[C@@H](C)C(=O)Nc2cccc(N)c2)c1C#N [Example 124, N^2-[2-amino-5-cyano-6-(methylthio)pyrimidin-4-yl]-N-(3-aminophenyl)-L-alaninamide] and CSc1nc(N)nc(N[C@H](C)C(=O)Nc2cccc(C(F)(F)F)c2)c1C#N [Example 83, N^2-[2-amino-5-cyano-6-(methylthio)pyrimidin-4-yl]-N-[3-(trifluoromethyl)phenyl]-D-alaninamide] cannot be ordered by IC50: > 2 µM for the first, > 2 µM for the second.

CCOc1nc(N)nc(N[C@@H](C)C(=O)Nc2cc(C(=O)NCCCN3CCN(C)CC3)cc(C(F)(F)F)c2)c1C#N [Example 161] and CCOc1nc(N)nc(N[C@@H](C)C(=O)Nc2cccc(C(F)(F)F)c2)c1C#N [Example 88, N^2-[2-amino-5-cyano-6-(ethyloxy)pyrimidin-4-yl]-N-[3-(trifluoromethyl)phenyl]-L-alaninamide] cannot be ordered by IC50: > 2 µM for the first, > 2 µM for the second.

CSc1nc(N)nc(N[C@@H](C)c2nc3ccc(C(F)(F)F)cc3[nH]2)c1C#N [Example 107, 2-amino-4-(methylthio)-6-({(1S)-1-[6-(trifluoromethyl)-1H-benzimidazol-2-yl]ethyl}amino)pyrimidine-5-carbonitrile] and CSc1nc(N)nc(N(C)[C@@H](C)c2nc3ccc(C(F)(F)F)cc3[nH]2)c1C#N [Example 104, 2-amino-4-(methylthio)-6-(methyl{(1S)-1-[6-(trifluoromethyl)-1H-benzimidazol-2-yl]ethyl}amino)pyrimidine-5-carbonitrile] cannot be ordered by IC50: > 2 µM for the first, > 2 µM for the second.

COc1nc(N)nc(N[C@@H](CCCNC(=O)OC(C)(C)C)C(=O)Nc2cccc(C(F)(F)F)c2)c1C#N [Example 185, 1,1-dimethylethyl ((4S)-4-{[2-amino-5-cyano-6-(methyloxy)pyrimidin-4-yl]amino}-5-oxo-5-{[3-(trifluoromethyl)phenyl]amino}pentyl)carbamate] and CCOc1nc(N)nc(N[C@@H](CCC(=O)OC)C(=O)Nc2cccc(C(F)(F)F)c2)c1C#N [Example 170, Methyl N~2~-[2-amino-5-cyano-6-(ethyloxy)pyrimidin-4-yl]-N-[3-(trifluoromethyl)phenyl]-L-alpha-glutaminate] cannot be ordered by IC50: > 2 µM for the first, > 2 µM for the second.

First: CCCOc1nc(N)nc(N[C@@H](C)C(=O)Nc2cccc(C(F)(F)F)c2)c1C#N [Example 115, N^2-[2-amino-5-cyano-6-(propyloxy)pyrimidin-4-yl]-N-[3-(trifluoromethyl)phenyl]-L-alaninamide]
Second: CC(C)Oc1nc(N)nc(N[C@@H](C)C(=O)Nc2cccc(C(F)(F)F)c2)c1C#N [Example 122, N^2-{2-amino-5-cyano-6-[(1-methylethyl)oxy]pyrimidin-4-yl}-N-[3-(trifluoromethyl)phenyl]-L-alaninamide]
The IC50 of the first is lower: 0.05 to 0.5 µM for the first, > 2 µM for the second.

Compared with CCOc1nc(N)nc(NNC(=O)Nc2cccc(C(F)(F)F)c2)c1C#N [Example 127, 2-[2-amino-5-cyano-6-(ethyloxy)pyrimidin-4-yl]-N-[3-(trifluoromethyl)phenyl]hydrazinecarboxamide], CCOc1nc(N)nc(N[C@@H](CO)C(=O)Nc2cccc(C(F)(F)F)c2)c1C#N [Example 150, N~2~-[2-amino-5-cyano-6-(ethyloxy)pyrimidin-4-yl]-N-[3-(trifluoromethyl)phenyl]-L-serinamide] is lower in IC50: > 2 µM for the first, 0.5 to 2 µM for the second. The second is the more potent here.

CSc1nc(N)nc(OC(C(=O)Nc2cccc(C(F)(F)F)c2)C(C)C)c1C#N (stereo in doubt) [Example 70, (2S)-2-{[2-amino-5-cyano-6-(methylthio)pyrimidin-4-yl]oxy}-3-methyl-N-[3-(trifluoromethyl)phenyl]butanamide] and CSc1nc(N)nc(N(C)CC(=O)Nc2cccc(C(F)(F)F)c2)c1C#N [Example 72, N^2-[2-amino-5-cyano-6-(methylthio)pyrimidin-4-yl]-N^2-methyl-N-[3-(trifluoromethyl)phenyl]glycinamide] cannot be ordered by IC50: > 2 µM for the first, > 2 µM for the second.

CCOc1nc(N)nc(N[C@@H](CCC(=O)NN)C(=O)Nc2cccc(C(F)(F)F)c2)c1C#N [Example 177, ′2-(2-amino-5-cyano-6-ethoxy-pyrimidin-4-ylamino)-4-hydrazinocarbonyl-N-(3-trifluoromethyl-phenyl)-butyramide] and CCOc1nc(N)nc(N[C@@H](COC(C)=O)C(=O)Nc2cccc(C(F)(F)F)c2)c1C#N [Example 164, (2S)-2-{[2-amino-5-cyano-6-(ethyloxy)pyrimidin-4-yl]amino}-3-oxo-3-{[3-(trifluoromethyl)phenyl]amino}propyl acetate] cannot be ordered by IC50: > 2 µM for the first, > 2 µM for the second.

CSc1nc(N)nc(N[C@@H](CCCN)C(=O)Nc2cccc(C(F)(F)F)c2)c1C#N [Example 86, N^2-[2-amino-5-cyano-6-(methylthio)pyrimidin-4-yl]-N-[3-(trifluoromethyl)phenyl]-L-ornithinamide] and CSc1nc(N)nc(N[C@@H](CCCCN)C(=O)Nc2cccc(C(F)(F)F)c2)c1C#N [Example 114, N^2-[2-amino-5-cyano-6-(methylthio)pyrimidin-4-yl]-N-[3-(trifluoromethyl)phenyl]-L-lysinamide] cannot be ordered by IC50: > 2 µM for the first, > 2 µM for the second.

Nc1nc(Cl)c(C=O)c(OCC(=O)Nc2cccc(C(F)(F)F)c2)n1 [Example 50, 2-[(2-amino-6-chloro-5-formylpyrimidin-4-yl)oxy]-N-[3-(trifluoromethyl)phenyl]acetamide] and CNc1nc(N)nc(SCC(=O)Nc2cccc(C(F)(F)F)c2)c1C=O [Example 45, 2-{[2-amino-5-formyl-6-(methylamino)pyrimidin-4-yl]thio}-N-[3-(trifluoromethyl)phenyl]acetamide] fall in the same range of IC50: 0.05 to 0.5 µM for the first, 0.05 to 0.5 µM for the second.

C[C@H](Nc1nc(N)ncc1C#N)C(=O)Nc1cccc(C(F)(F)F)c1 [Example 90, N^2-(2-amino-5-cyanopyrimidin-4-yl)-N-[3-(trifluoromethyl)phenyl]-L-alaninamide] and CCOc1nc(N)nc(N[C@@H](COC)C(=O)Nc2cccc(C(F)(F)F)c2)c1C#N [Example 197, N~2~-[2-amino-5-cyano-6-(ethyloxy)pyrimidin-4-yl]-O-methyl-N-[3-(trifluoromethyl)phenyl]-L-serinamide] cannot be ordered by IC50: > 2 µM for the first, > 2 µM for the second.

CCOc1nc(N)nc(N[C@@H](CN2CCOCC2)C(=O)Nc2cccc(C(F)(F)F)c2)c1C#N [Example 193, N~2~-[2-amino-5-cyano-6-(ethyloxy)pyrimidin-4-yl]-3-morpholin-4-yl-N-[3-(trifluoromethyl)phenyl]-L-alaninamide] and CCOc1nc(N)nc(N[C@@H](CCC[N+](C)(C)C)C(=O)Nc2cccc(C(F)(F)F)c2)c1C#N [Example 169, N-((4S)-4-{[2-amino-5-cyano-6-(ethyloxy)pyrimidin-4-yl]amino}-5-oxo-5-{[3-(trifluoromethyl)phenyl]amino}pentyl)-N,N-dimethylmethanaminium] cannot be ordered by IC50: > 2 µM for the first, > 2 µM for the second.

First: CN(C)c1nc(N)nc(SCC(=O)Nc2cccc(C(F)(F)F)c2)c1C#N [Example 66, 2-{[2-amino-5-cyano-6-(dimethylamino)pyrimidin-4-yl]thio}-N-[3-(trifluoromethyl)phenyl]acetamide]
Second: COc1nc(N)nc(N[C@@H](C)C(=O)Nc2cc(OCCN(C)C)cc(C(F)(F)F)c2)c1C#N [Example 179, N~2~-[2-amino-5-cyano-6-(methyloxy)pyrimidin-4-yl]-N-[3-{[2-(dimethylamino)ethyl]oxy}-5-(trifluoromethyl)phenyl]-L-alaninamide]
The IC50 of the first is lower: 0.5 to 2 µM for the first, > 2 µM for the second. The first is the more potent here.
